Measured values: ChEMBL document CHEMBL3390848, “Affinity selection and sequence-activity relationships of HIV-1 membrane fusion inhibitors directed at the drug-resistant variants” (Medchemcomm, 2010)
Residues, ends and D or L forms follow the SMILES beside them.

How the values were obtained:
[1] = system: Human immunodeficiency virus 1; test: Thermal stability of HIV1 envelope glycoprotein gp41 His-tagged N-terminal heptad repeat N36-drug complex assessed as thermal unfolding transition state by measuring molar ellipticity at 4 to 90 degC by circular dichroic spectra analysis
[2] = system: Human immunodeficiency virus 1; test: Antiviral activity against HIV1 NL4-3 harboring gp41 D36G mutant infected in human HeLa cells expressing CD4-LTR-beta-gal assessed as inhibition of viral replication after 48 hrs by MAGI assay; type: functional, organism-based
[3] = system: Human immunodeficiency virus 1; test: Binding affinity to HIV1 His-tagged N-terminal heptad repeat of envelope glycoprotein gp41 assessed as recovery of N36-drug complex after 2 hrs by LC-MS analysis; design: concentration or dose not given beside the values

SMILES	Tm [1]	EC50 [2]	Activity [3]
CC[C@H](C)[C@H](NC(=O)[C@H](CC(C)C)NC(=O)[C@H](CCC(=O)O)NC(=O)[C@H](CCC(=O)O)NC(=O)[C@@H](NC(=O)[C@H](CCCCN)NC(=O)[C@H](CCCCN)NC(=O)[C@@H](NC(=O)[C@H](Cc1ccc(O)cc1)NC(=O)[C@H](CCC(=O)O)NC(=O)[C@H](CCC(=O)O)NC(=O)[C@@H](NC(=O)[C@H](CCCCN)NC(=O)[C@H](CCCCN)NC(=O)[C@H](CC(=O)O)NC(=O)[C@H](Cc1c[nH]c2ccccc12)NC(=O)[C@H](CCC(=O)O)NC(=O)[C@H](CCC(=O)O)NC(=O)[C@H](Cc1c[nH]c2ccccc12)NC(C)=O)[C@@H](C)CC)[C@@H](C)O)[C@@H](C)CC)C(=O)N[C@@H](CCCCN)C(=O)N[C@@H](CCCCN)C(=O)N[C@@H](CO)C(=O)N[C@@H](CCC(=O)O)C(=O)N[C@@H](CCC(=O)O)C(=O)N[C@@H](CC(N)=O)C(=O)N[C@@H](CCC(N)=O)C(=O)N[C@@H](CCCCN)C(=O)N[C@@H](CCCCN)C(=O)N[C@@H](CC(N)=O)C(=O)N[C@@H](CCC(=O)O)C(=O)N[C@@H](CCC(=O)O)C(=O)N[C@@H](CCC(=O)O)C(=O)N[C@@H](CC(C)C)C(=O)N[C@@H](CCCCN)C(=O)N[C@@H](CCCCN)C(N)=O (Ac-WEEWDKKIEEYTKKIEELIKKSEENQKKNEEELKK-NH2)	73.4 °C	2.5 nM	4%
CC[C@H](C)[C@H](NC(=O)[C@H](CC(C)C)NC(=O)[C@H](CCC(=O)O)NC(=O)[C@H](CCC(=O)O)NC(=O)[C@@H](NC(=O)[C@H](CCCCN)NC(=O)[C@H](CCCCN)NC(=O)[C@@H](NC(=O)[C@H](Cc1ccc(O)cc1)NC(=O)[C@H](CCC(=O)O)NC(=O)[C@H](CCC(=O)O)NC(=O)[C@@H](NC(=O)[C@H](CCCCN)NC(=O)[C@H](CCCCN)NC(=O)[C@H](CC(=O)O)NC(=O)[C@H](Cc1c[nH]c2ccccc12)NC(=O)[C@H](CCC(=O)O)NC(=O)[C@H](CCC(=O)O)NC(=O)[C@H](Cc1c[nH]c2ccccc12)NC(C)=O)[C@@H](C)CC)[C@@H](C)O)[C@@H](C)CC)C(=O)N[C@@H](CCCCN)C(=O)N[C@@H](CCCCN)C(=O)N[C@@H](CO)C(=O)N[C@@H](CCC(=O)O)C(=O)N[C@@H](CCC(=O)O)C(=O)N1CCC[C@H]1C(=O)N[C@@H](CCC(N)=O)C(=O)N[C@@H](CCCCN)C(=O)N[C@@H](CCCCN)C(=O)N[C@@H](CC(N)=O)C(=O)N[C@@H](CCC(=O)O)C(=O)N[C@@H](CCC(=O)O)C(=O)N[C@@H](CCC(=O)O)C(=O)N[C@@H](CC(C)C)C(=O)N[C@@H](CCCCN)C(=O)N[C@@H](CCCCN)C(N)=O (Ac-WEEWDKKIEEYTKKIEELIKKSEEPQKKNEEELKK-NH2)	60.2 °C	58 nM	0%
CC[C@H](C)[C@H](NC(=O)[C@H](CC(C)C)NC(=O)[C@H](CCC(=O)O)NC(=O)[C@H](CCC(=O)O)NC(=O)[C@@H](NC(=O)[C@H](CCCCN)NC(=O)[C@H](CCCCN)NC(=O)[C@@H](NC(=O)[C@H](Cc1ccc(O)cc1)NC(=O)[C@H](CCC(=O)O)NC(=O)[C@H](CCC(=O)O)NC(=O)[C@@H](NC(=O)[C@H](CCCCN)NC(=O)[C@H](CCCCN)NC(=O)[C@H](CC(=O)O)NC(=O)[C@H](Cc1c[nH]c2ccccc12)NC(=O)[C@H](CCC(=O)O)NC(=O)[C@H](CCC(=O)O)NC(=O)[C@H](Cc1c[nH]c2ccccc12)NC(C)=O)[C@@H](C)CC)[C@@H](C)O)[C@@H](C)CC)C(=O)N[C@@H](CCCCN)C(=O)N[C@@H](CCCCN)C(=O)N[C@@H](CO)C(=O)N[C@@H](CCC(=O)O)C(=O)N[C@@H](CCC(=O)O)C(=O)N[C@@H](CCCNC(=N)N)C(=O)N[C@@H](CCC(N)=O)C(=O)N[C@@H](CCCCN)C(=O)N[C@@H](CCCCN)C(=O)N[C@@H](CC(N)=O)C(=O)N[C@@H](CCC(=O)O)C(=O)N[C@@H](CCC(=O)O)C(=O)N[C@@H](CCC(=O)O)C(=O)N[C@@H](CC(C)C)C(=O)N[C@@H](CCCCN)C(=O)N[C@@H](CCCCN)C(N)=O (Ac-WEEWDKKIEEYTKKIEELIKKSEERQKKNEEELKK-NH2)	71.5 °C	2.5 nM	7.6%
CC[C@H](C)[C@H](NC(=O)[C@H](CC(C)C)NC(=O)[C@H](CCC(=O)O)NC(=O)[C@H](CCC(=O)O)NC(=O)[C@@H](NC(=O)[C@H](CCCCN)NC(=O)[C@H](CCCCN)NC(=O)[C@@H](NC(=O)[C@H](Cc1ccc(O)cc1)NC(=O)[C@H](CCC(=O)O)NC(=O)[C@H](CCC(=O)O)NC(=O)[C@@H](NC(=O)[C@H](CCCCN)NC(=O)[C@H](CCCCN)NC(=O)[C@H](CC(=O)O)NC(=O)[C@H](Cc1c[nH]c2ccccc12)NC(=O)[C@H](CCC(=O)O)NC(=O)[C@H](CCC(=O)O)NC(=O)[C@H](Cc1c[nH]c2ccccc12)NC(C)=O)[C@@H](C)CC)[C@@H](C)O)[C@@H](C)CC)C(=O)N[C@@H](CCCCN)C(=O)N[C@@H](CCCCN)C(=O)N[C@@H](CO)C(=O)N[C@@H](CCC(=O)O)C(=O)N[C@@H](CCC(=O)O)C(=O)N[C@@H](CO)C(=O)N[C@@H](CCC(N)=O)C(=O)N[C@@H](CCCCN)C(=O)N[C@@H](CCCCN)C(=O)N[C@@H](CC(N)=O)C(=O)N[C@@H](CCC(=O)O)C(=O)N[C@@H](CCC(=O)O)C(=O)N[C@@H](CCC(=O)O)C(=O)N[C@@H](CC(C)C)C(=O)N[C@@H](CCCCN)C(=O)N[C@@H](CCCCN)C(N)=O (Ac-WEEWDKKIEEYTKKIEELIKKSEESQKKNEEELKK-NH2)	72.4 °C	2.5 nM	4%
CC[C@H](C)[C@H](NC(=O)[C@H](CC(C)C)NC(=O)[C@H](CCC(=O)O)NC(=O)[C@H](CCC(=O)O)NC(=O)[C@@H](NC(=O)[C@H](CCCCN)NC(=O)[C@H](CCCCN)NC(=O)[C@@H](NC(=O)[C@H](Cc1ccc(O)cc1)NC(=O)[C@H](CCC(=O)O)NC(=O)[C@H](CCC(=O)O)NC(=O)[C@@H](NC(=O)[C@H](CCCCN)NC(=O)[C@H](CCCCN)NC(=O)[C@H](CC(=O)O)NC(=O)[C@H](Cc1c[nH]c2ccccc12)NC(=O)[C@H](CCC(=O)O)NC(=O)[C@H](CCC(=O)O)NC(=O)[C@H](Cc1c[nH]c2ccccc12)NC(C)=O)[C@@H](C)CC)[C@@H](C)O)[C@@H](C)CC)C(=O)N[C@@H](CCCCN)C(=O)N[C@@H](CCCCN)C(=O)N[C@@H](CO)C(=O)N[C@@H](CCC(=O)O)C(=O)N[C@@H](CCC(=O)O)C(=O)N[C@H](C(=O)N[C@@H](CCC(N)=O)C(=O)N[C@@H](CCCCN)C(=O)N[C@@H](CCCCN)C(=O)N[C@@H](CC(N)=O)C(=O)N[C@@H](CCC(=O)O)C(=O)N[C@@H](CCC(=O)O)C(=O)N[C@@H](CCC(=O)O)C(=O)N[C@@H](CC(C)C)C(=O)N[C@@H](CCCCN)C(=O)N[C@@H](CCCCN)C(N)=O)[C@@H](C)O (Ac-WEEWDKKIEEYTKKIEELIKKSEETQKKNEEELKK-NH2)	76.7 °C	3.2 nM	7.3%
CC[C@H](C)[C@H](NC(=O)[C@H](CC(C)C)NC(=O)[C@H](CCC(=O)O)NC(=O)[C@H](CCC(=O)O)NC(=O)[C@@H](NC(=O)[C@H](CCCCN)NC(=O)[C@H](CCCCN)NC(=O)[C@@H](NC(=O)[C@H](Cc1ccc(O)cc1)NC(=O)[C@H](CCC(=O)O)NC(=O)[C@H](CCC(=O)O)NC(=O)[C@@H](NC(=O)[C@H](CCCCN)NC(=O)[C@H](CCCCN)NC(=O)[C@H](CC(=O)O)NC(=O)[C@H](Cc1c[nH]c2ccccc12)NC(=O)[C@H](CCC(=O)O)NC(=O)[C@H](CCC(=O)O)NC(=O)[C@H](Cc1c[nH]c2ccccc12)NC(C)=O)[C@@H](C)CC)[C@@H](C)O)[C@@H](C)CC)C(=O)N[C@@H](CCCCN)C(=O)N[C@@H](CCCCN)C(=O)N[C@@H](CO)C(=O)N[C@@H](CCC(=O)O)C(=O)N[C@@H](CCC(=O)O)C(=O)N[C@H](C(=O)N[C@@H](CCC(N)=O)C(=O)N[C@@H](CCCCN)C(=O)N[C@@H](CCCCN)C(=O)N[C@@H](CC(N)=O)C(=O)N[C@@H](CCC(=O)O)C(=O)N[C@@H](CCC(=O)O)C(=O)N[C@@H](CCC(=O)O)C(=O)N[C@@H](CC(C)C)C(=O)N[C@@H](CCCCN)C(=O)N[C@@H](CCCCN)C(N)=O)C(C)C (Ac-WEEWDKKIEEYTKKIEELIKKSEEVQKKNEEELKK-NH2)	77.7 °C	2.2 nM	6.2%
CC[C@H](C)[C@H](NC(=O)[C@H](CC(C)C)NC(=O)[C@H](CCC(=O)O)NC(=O)[C@H](CCC(=O)O)NC(=O)[C@@H](NC(=O)[C@H](CCCCN)NC(=O)[C@H](CCCCN)NC(=O)[C@@H](NC(=O)[C@H](Cc1ccc(O)cc1)NC(=O)[C@H](CCC(=O)O)NC(=O)[C@H](CCC(=O)O)NC(=O)[C@@H](NC(=O)[C@H](CCCCN)NC(=O)[C@H](CCCCN)NC(=O)[C@H](CC(=O)O)NC(=O)[C@H](Cc1c[nH]c2ccccc12)NC(=O)[C@H](CCC(=O)O)NC(=O)[C@H](CCC(=O)O)NC(=O)[C@H](Cc1c[nH]c2ccccc12)NC(C)=O)[C@@H](C)CC)[C@@H](C)O)[C@@H](C)CC)C(=O)N[C@@H](CCCCN)C(=O)N[C@@H](CCCCN)C(=O)N[C@@H](CO)C(=O)N[C@@H](CCC(=O)O)C(=O)N[C@@H](CCC(=O)O)C(=O)N[C@@H](Cc1c[nH]c2ccccc12)C(=O)N[C@@H](CCC(N)=O)C(=O)N[C@@H](CCCCN)C(=O)N[C@@H](CCCCN)C(=O)N[C@@H](CC(N)=O)C(=O)N[C@@H](CCC(=O)O)C(=O)N[C@@H](CCC(=O)O)C(=O)N[C@@H](CCC(=O)O)C(=O)N[C@@H](CC(C)C)C(=O)N[C@@H](CCCCN)C(=O)N[C@@H](CCCCN)C(N)=O (Ac-WEEWDKKIEEYTKKIEELIKKSEEWQKKNEEELKK-NH2)	77.1 °C	1.7 nM	7.1%
